Key:
[1] = tested on: A549; assay: Decrease in cell cycle associated protein expression in human A549 cells assessed as fold change in cyclin D2 expression at 10 uM after 24 hrs by Western blot analysis (reference value: 0.77); format: functional
[2] = Increase in recruitment of […] p27KIP1 to CDK6 in human A549 cells assessed as fold change at 10 uM incubated for 12 hrs by immunoprecipitation/immunoblot analysis (reference value: 0.56); format: functional
[3] = tested on: A549; assay: Decrease in cell cycle associated protein expression in human A549 cells assessed as fold change in CDK4 expression at 10 uM after 12 hrs by Western blot analysis (reference value: 0.87); format: functional
[4] = Metabolic stability in rat liver microsomes assessed as parent compound remaining at 1 uM measured for 30 mins; format: ADME, Microsome; settings: read-out: Stabilty
[5] = Upregulation of p27KIP1 protein expression in human A549 cells assessed as fold change in expression at 10 uM after 48 hrs by Western blot analysis (reference value: 0.48 to 0.83); format: functional
[6] = tested on: A549; assay: Decrease in cell cycle associated protein expression in human A549 cells assessed as fold change in CDK2 expression at 5 uM after 48 hrs by Western blot analysis (reference value: 0.48); format: functional
[7] = Metabolic stability in human liver microsomes assessed as parent compound remaining at 1 uM measured for 30 mins; format: ADME, Microsome; settings: read-out: Stabilty
[8] = tested on: A549; assay: Decrease in cell cycle associated protein expression in human A549 cells assessed as fold change in cyclin E expression at 10 uM after 48 hrs by Western blot analysis (reference value: 0.37 to 0.55); format: functional
[9] = tested on: A549; assay: Decrease in cell cycle associated protein expression in human A549 cells assessed as fold change in cyclin D3 expression at 10 uM after 6 hrs by Western blot analysis (reference value: 1.09); format: functional
[10] = tested on: A549; assay: Potentiation of cisplatin-induced cell cycle arrest in human A549 cells assessed as accumulation at sub G1 phase at 2.5 uM in presence of cisplatin after 48 hrs by flow cytometric analysis (reference value: 17%); format: functional
[11] = tested on: A549; assay: Induction of cell cycle arrest in human A549 cells assessed as accumulation at S phase at 10 uM after 48 hrs by flow cytometric analysis (reference value: 10.4%); format: functional
[12] = tested on: A549; assay: Decrease in cell cycle associated protein expression in human A549 cells assessed as fold change in cyclin E expression at 2.5 uM after 48 hrs by Western blot analysis (reference value: 0.37); format: functional
[13] = Metabolic stability in dog liver microsomes assessed as parent compound remaining at 1 uM measured for 30 mins; format: ADME, Canis lupus familiaris, Microsome; settings: read-out: Stabilty
[14] = tested on: A549; assay: Decrease in cell cycle associated protein expression in human A549 cells assessed as fold change in CDK2 expression at 2.5 uM after 48 hrs by Western blot analysis (reference value: 0.48); format: functional
[15] = tested on: A549; assay: Decrease in cell cycle associated protein expression in human A549 cells assessed as fold change in CDK6 expression at 2.5 uM after 48 hrs by Western blot analysis (reference value: 1.05); format: functional
[16] = tested on: A549; assay: Decrease in cell cycle associated protein expression in human A549 cells assessed as reduction in cyclin E expression after 48 hrs by Western blot analysis; format: functional, cell-based; settings: dose 2.5-10 µM
[17] = Increase in recruitment of […] p27KIP1 to CDK4 in human A549 cells assessed as fold change at 10 uM incubated for 12 hrs by immunoprecipitation/immunoblot analysis (reference value: 0.16); format: functional
[18] = tested on: A549; assay: Induction of cell cycle arrest in human A549 cells assessed as accumulation at G1 phase at 10 uM after 48 hrs by flow cytometric analysis (reference value: 65.5%); format: functional
[19] = tested on: A549; assay: Decrease in cell cycle associated protein expression in human A549 cells assessed as fold change in CDK6 expression at 10 uM after 12 hrs by Western blot analysis (reference value: 0.7); format: functional
[20] = tested on: A549; assay: Induction of cell cycle arrest in human A549 cells assessed as accumulation at G2/M phase at 2.5 uM after 48 hrs by flow cytometric analysis (Rvb =22.1%); format: functional
[21] = tested on: A549; assay: Potentiation of cisplatin-induced cell cycle arrest in human A549 cells assessed as accumulation at G1 phase at 10 uM in presence of cisplatin after 48 hrs by flow cytometric analysis (reference value: 14.4%); format: functional
[22] = tested on: A549; assay: Decrease in cell cycle associated protein expression in human A549 cells assessed as fold change in CDK4 expression at 5 uM after 48 hrs by Western blot analysis (reference value: 0.62); format: functional
[23] = tested on: A549; assay: Upregulation of p27KIP1 protein expression in human A549 cells after 48 hrs by Western blot analysis; format: functional, cell-based; settings: dose 2.5-10 µM
[24] = tested on: A549; assay: Potentiation of cisplatin-induced cell cycle arrest in human A549 cells assessed as accumulation at G2/M phase at 2.5 uM in presence of cisplatin after 48 hrs by flow cytometric analysis (Rvb =52.9%); format: functional
[25] = tested on: A549; assay: Decrease in cell cycle associated protein expression in human A549 cells assessed as fold change in cyclin D2 expression at 10 uM after 48 hrs by Western blot analysis (reference value: 0.46 to 0.77); format: functional
[26] = tested on: A549; assay: Potentiation of etoposide-induced cell cycle arrest in human A549 cells assessed as accumulation at S phase at 10 uM in presence of etoposide after 48 hrs by flow cytometric analysis (Rvb =12.3%); format: functional
[27] = tested on: A549; assay: Potentiation of etoposide-induced apoptosis in human A549 cells assessed as late apoptotic cells at 10 uM incubated for 48 hrs by AnnexinV-FITC/propidium iodide staining based flow cytometry (reference value: 12.6%); format: functional
[28] = tested on: A549; assay: Decrease in cell cycle associated protein expression in human A549 cells assessed as fold change in CDK4 expression at 10 uM after 48 hrs by Western blot analysis (reference value: 0.62 to 0.87); format: functional
[29] = tested on: A549; assay: Potentiation of etoposide-induced cell cycle arrest in human A549 cells assessed as accumulation at G2/M phase at 10 uM in presence of etoposide after 48 hrs by flow cytometric analysis (Rvb =18.9%); format: functional
[30] = tested on: A549; assay: Induction of apoptosis in human A549 cells assessed as late apoptotic cells at 10 uM incubated for 48 hrs by AnnexinV-FITC/propidium iodide staining based flow cytometry (reference value: 4%); format: functional
[31] = Metabolic stability in human plasma assessed as parent compound remaining at 10 uM measured after 1 hr; format: ADME, cell-free; settings: read-out: Stabilty
[32] = Upregulation of p27KIP1 protein expression in human A549 cells assessed as fold change in expression at 2.5 uM after 48 hrs by Western blot analysis (reference value: 0.48); format: functional
[33] = target: CYP2D6 (Homo sapiens, UniProt P10635); assay: Inhibition of human CYP2D6 assessed as residual activity at 10 uM measured after 15 mins relative to control; format: ADME; settings: read-out: Activity
[34] = Metabolic stability in mouse liver microsomes assessed as parent compound remaining at 1 uM measured for 30 mins; format: ADME, Microsome; settings: read-out: Stabilty
[35] = tested on: A549; assay: Decrease in cell cycle associated protein expression in human A549 cells assessed as fold change in cyclin D1 expression at 2.5 uM after 48 hrs by Western blot analysis (reference value: 0.39); format: functional
[36] = tested on: A549; assay: Potentiation of cisplatin-induced cell cycle arrest in human A549 cells assessed as accumulation at G2/M phase at 5 uM in presence of cisplatin after 48 hrs by flow cytometric analysis (Rvb =52.9%); format: functional

Sequence of CYP2D6 (P10635 whole entry): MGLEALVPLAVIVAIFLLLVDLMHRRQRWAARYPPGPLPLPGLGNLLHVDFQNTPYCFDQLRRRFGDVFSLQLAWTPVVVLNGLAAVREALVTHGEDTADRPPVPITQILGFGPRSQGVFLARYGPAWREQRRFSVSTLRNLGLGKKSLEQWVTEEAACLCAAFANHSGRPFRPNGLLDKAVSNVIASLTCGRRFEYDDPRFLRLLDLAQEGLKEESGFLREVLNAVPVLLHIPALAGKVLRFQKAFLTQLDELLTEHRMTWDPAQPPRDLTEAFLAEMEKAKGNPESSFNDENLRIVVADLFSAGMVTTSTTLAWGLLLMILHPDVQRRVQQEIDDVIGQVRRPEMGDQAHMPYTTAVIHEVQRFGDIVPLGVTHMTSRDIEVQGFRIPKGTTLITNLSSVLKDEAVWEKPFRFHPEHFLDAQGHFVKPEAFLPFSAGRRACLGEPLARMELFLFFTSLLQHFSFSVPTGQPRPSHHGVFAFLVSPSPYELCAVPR

Question: What does the source list for `CN(C)C(=O)NCCCN(C)C1=Nc2ccccc2C(CC(=O)NCc2ccc(F)cc2)N1c1ccc(C2CCCCC2)cc1` (stereo unspecified)?
Answer: fold change (FC) [1]: 0.43; fold change (FC) [2]: 0.68; fold change (FC) [3]: 0.61; remaining at 0.5 h, 1 µM [4]: 62.6%; fold change (FC) [5]: 0.93; fold change (FC) [6]: 0.46; remaining at 0.5 h, 1 µM [7]: 71.2%; fold change (FC) [8]: 0.01; fold change (FC) [9]: 1.23; Activity [10]: 18.6%; Activity [11]: 2.4%; fold change (FC) [12]: 0.44; remaining at 0.5 h, 1 µM [13]: 92.6%; fold change (FC) [14]: 0.47; fold change (FC) [15]: 0.59; Activity [16]: Dose-dependent effect; fold change (FC) [17]: 0.62; Activity [18]: 77.4%; fold change (FC) [19]: 0.64; Activity [20]: 19.4%; Activity [21]: 32.4%; fold change (FC) [22]: 0.64; Activity [23]: Dose-dependent effect; Activity [24]: 43%; fold change (FC) [25]: 0.18; Activity [26]: 6.2%; Activity [27]: 12.9%; fold change (FC) [28]: 0.46; Activity [29]: 3.2%; Activity [30]: 4.3%; remaining at 1 h, 10 µM [31]: 85.1%; fold change (FC) [32]: 0.62; activity at 0.25 h, 10 µM [33]: 78.3%; remaining at 0.5 h, 1 µM [34]: 64.3%; fold change (FC) [35]: 0.43; Activity [36]: 33.9%
